Laboratory results reported in patent US9517993B2, “Antagonists of the toll-like receptor 1/2 complex” (THE REGENTS OF THE UNIVERSITY OF COLORADO, a body corporate, priority 2012, dated 2016).
“Also recorded” adds a separate entry of the source.

What was measured:
[1] = tested on: isolated microglial cells; assay: IL-1β inhibition in isolated microglial cells incubated with Pam3CSK4; type: cell-based; details: Pam3CSK4 and compound for 2 hours, N=4, listed as CU-CPT22
Procedure: In vitro testing was conducted using primary cells (isolated microglial cells) incubated with Pam3CSK4 and CU-CPT22 for 2 hours.

TLR1/2 = TLR1/2 (Homo sapiens, UniProt O60603+Q15399); assay: Fluorescence anisotropy competition assay with rhodamine-labeled Pam3CSK4; type: binding; parameters: His; TLR2 made in house; host or cells: baculovirus; Sf-9 for virus, High Five insect cells for expression (TLR2)
Sequence of TLR1/2 (Q15399 25-580 limits assumed): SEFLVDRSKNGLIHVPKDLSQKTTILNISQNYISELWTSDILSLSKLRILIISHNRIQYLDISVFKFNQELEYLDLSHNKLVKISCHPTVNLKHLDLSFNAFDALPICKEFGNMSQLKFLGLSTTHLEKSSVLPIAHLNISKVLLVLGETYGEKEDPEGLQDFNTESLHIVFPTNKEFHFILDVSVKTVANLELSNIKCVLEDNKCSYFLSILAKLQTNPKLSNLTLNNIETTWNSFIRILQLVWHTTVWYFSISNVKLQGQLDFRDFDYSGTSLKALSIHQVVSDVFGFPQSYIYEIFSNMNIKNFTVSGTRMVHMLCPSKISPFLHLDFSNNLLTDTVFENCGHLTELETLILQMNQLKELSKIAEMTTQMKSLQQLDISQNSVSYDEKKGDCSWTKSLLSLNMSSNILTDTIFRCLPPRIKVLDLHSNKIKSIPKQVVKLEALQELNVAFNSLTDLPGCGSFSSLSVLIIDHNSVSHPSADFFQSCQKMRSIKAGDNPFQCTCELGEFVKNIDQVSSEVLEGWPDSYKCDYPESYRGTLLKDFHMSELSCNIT
Sequence of TLR1/2 (O60603 21-588 limits assumed): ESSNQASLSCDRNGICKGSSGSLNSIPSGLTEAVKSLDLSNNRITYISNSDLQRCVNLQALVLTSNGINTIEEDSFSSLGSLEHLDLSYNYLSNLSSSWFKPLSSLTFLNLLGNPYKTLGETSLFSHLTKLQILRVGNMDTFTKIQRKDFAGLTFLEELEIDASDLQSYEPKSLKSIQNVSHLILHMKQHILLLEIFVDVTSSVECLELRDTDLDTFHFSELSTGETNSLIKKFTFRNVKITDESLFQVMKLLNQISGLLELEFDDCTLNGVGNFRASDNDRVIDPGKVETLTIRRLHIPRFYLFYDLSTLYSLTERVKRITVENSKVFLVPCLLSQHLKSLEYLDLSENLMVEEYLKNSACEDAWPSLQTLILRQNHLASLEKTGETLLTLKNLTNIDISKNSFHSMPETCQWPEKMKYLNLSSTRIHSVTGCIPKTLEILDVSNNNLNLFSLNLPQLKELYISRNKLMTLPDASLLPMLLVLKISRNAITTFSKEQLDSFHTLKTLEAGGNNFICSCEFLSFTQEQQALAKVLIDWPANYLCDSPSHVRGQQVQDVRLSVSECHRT
Excerpt: The TLR2 protein was expressed in the baculovirus insect cell expression system using the methods described by Kuroki et al. See Iwaki et al., The extracellular Toll-like receptor 2 domain directly binds peptidoglycan derived from Staphylococcus aureus, J. Biol Chem (2002), 277:24315-20, which is herein incorporated by reference in its entirety. The activity of the TLR2 protein was validated by the fluorescence anisotropy assay. […] Good fitting (R2>0.98) inferred that compound 17 and Pam3CSK4 compete for the same binding site on the TLR1/2 dimeric surface.
In 500 μL Tris buffer (pH=7.2) add 10 μL, (1 ng/mL) rhodamine-labeled Pam3CSK4, test the fluorescence anisotropy at excitation of 549 nm and emission of 566 nm (Horiba Fluorolog 3). And 5 μL (20 μM) TLR1 (R &D) and 5 μL, (20 μM) TLR2 was added into the above buffer, then retest the anisotropy. Following, compound 17 or compound 6 was added in the buffer from the concentration of 0 to 6 μM, and the fluorescence anisotropy was tested in the corresponding concentration.
Fluorescence polarization experiments were performed at 25° C. using a Horiba Fluorolog-3 fluorometer. For direct binding measurements, serial dilutions of TLR1 (R&D, MN) and TLR2 were made in Tris buffer (pH=7.2), and an aliquot (10 μL) of 1 ng/mL rhodamine labeled Pam3CSK4, was added to a total volume of 500 μL. The competition binding solution was incubated for 30 minutes at 25° C. Serial dilutions of compound 17 or compound 6 were incubated with 20 μM TLR1, 20 μM TLR2 and rhodamine-labeled Pam3CSK4 for 30 min at room temperature.
Regression analysis was carried out using Origin 7.5 (OriginLab) ligand binding macro module. […] Equation (1): y=min+(max−min)/(1+10^x-logIC50)(total binding, x=log concentration of and rhodamine-labeled Pam3CSK4, min=nonspecific binding, max=maximum binding in absence of ligand). Equation (2): Ki=IC50/(1+[L]/Kd) ([L]=concentration of rhodamine-labeled Pam3CSK4).

pro-inflammatory mRNA = assay: In vivo ICM co-administration with Pam3CSK4, hippocampal mRNA by real time RT-PCR; details: 5 ng or 50 ng ICM with Pam3CSK4 40 ng; hippocampus 2 hours after injection; listed as CU-CPT22
Procedure: In vivo testing was conducted by the administration of Pam3CSK4 and CU-CPTP22. CU-CPT22 (5 ng or 50 ng), suspended in 5 μl sterile saline or vehicle, was co-administered with the TLR2 agonist Pam3CSK4 (40 ng/4 μl) to the animal via the cisterna magna (ICM) with a 1 μl air bubble separating the two reagents. Two hours after injection, the animal's hippocampus was collected for pro-inflammatory mRNA analysis using real time RT-PCR procedures. […] (N=8 for each group).

[2] = tested on: TNF-α and IL-1β production; assay: Cytokine-specific ELISA in Pam3CSK4-activated RAW 264.7 cells; type: cell-based, mouse
Procedure: RAW 264.7 cells were planted in 6-well plates at 1,000,000 cells per well with 3 mL of medium (RPMI 1640 medium, supplemented with 10% FBS, penicillin (100 U/mL) and streptomycin ([…])) and grown for 24 h at 37° C. in a 5% CO2 humidified incubator. After 24 h, non-adherent cells and media were removed and replaced with fresh RPMI 1640 medium (3 mL/well). Two wells of adherent macrophages were treated with Pam3CSK4 (Invivogen, 300 ng/mL) as the positive control, two wells was treated with 8 μM compound 17, and the other two wells ware treated with 8 μM compound DMSO. Another 6 well plate were treated with Pam3CSK4 (Invivogen, 300 ng/mL) and different concentration of 17. Plates were then incubated for an additional 24 h. […] Approximately 400 μL of supernatant were collected into new tubes, frozen at −80° C. until ready for cytokine measurement. The production of the cytokine interleukin-1β (IL-1β) and TNF-α was quantified with enzyme-linked immunosorbent assays (ELISA) using cytokine-specific capture antibodies, biotinylated monoclonal detection antibodies, and recombinant human cytokine standards according to commercially available ELISA kits from R&D Systems. The cytokine level in each sample was determined in duplicate.

RAW 264.7 cells = assay: MTT cytotoxicity assay; type: cell-based, mouse; details: for cytotoxicity: at the active dose, RAW 264.7 cells, MTT
Procedure: MTT Cytotoxicity Assay. In a 96-well plate 10,000 cells in 200 μL media (RPMI 1640 medium, supplemented with 10% FBS, penicillin (100 U/mL) and streptomycin ([…])) per well. Eight wells were left empty for blank controls. The plates were incubated (37° C., 5% CO2) overnight to allow the cells to attach to the wells. Add 20 ul (5 mg/mL) MTT solution to each well. Place on a shaking table, 150 rpm for 5 minutes, to thoroughly mix the MTT into the media. Incubate (37° C., 5% CO2) for 4 hours to allow the MTT to be metabolized. Dump off the media. Dry plate on paper towels to remove residue. Resuspend formazan (MTT metabolic product) in 200 ul DMSO. Place on a shaking table, 150 rpm for 5 minutes, to thoroughly mix the formazan into the solvent. When a clear difference could be seen by naked eye, results were read by spectrophotometer at 560 nm. Optical density should be directly correlated with cell quantity. Cytotoxicity (%) was determined using the following formula: Cytotoxicity (%) (1−[Compounds (OD560)−Background(OD560)]/[Control (OD560)−Background (OD560)])×100.

`CCCCCCOC(=O)c1cc(O)c(=O)c2c(O)c(O)c(OC)cc2c1` [compound 17, Hexyl 3,4,6-trihydroxy-2-methoxy-5-oxo-5H-benzo[7]annulene-8-carboxylate] was tested, and the “inhibition of IL-1β” value [1] was “Dose-dependent inhibition”, the “anisotropy of rhodamine-labeled Pam3CSK4 with TLR1/2” value (TLR1/2; compound concentration increased to 6 μM) was “decreased the anisotropy to background levels” and the “competition with Pam3CSK4 for TLR1/2 (in words)” value (TLR1/2; fluorescence anisotropy) was “competitive binding”. For the same compound, the Ki (TLR1/2; rhodamine-labeled Pam3CSK4, one-site competition model, read-out: inhibition constant (Ki), competition with Pam3CSK4 for binding to TLR1/2) was 410 nM, the “IL-6 / M-6 mRNA expression (FIG. 10c)” value (pro-inflammatory mRNA) was “strongly inhibits; also recorded: strong inhibition” and the “TNF-α mRNA expression (FIG. 10b)” value (pro-inflammatory mRNA) was “strongly inhibits; also recorded: strong inhibition”. The “mRNA expression (FIG. 10a)” value (pro-inflammatory mRNA) was “strongly inhibits; also recorded: strong inhibition”, the “TNF-α inhibition (ELISA)” value ([2]; RAW 264.7, 300 ng/mL Pam3CSK4) was “TNF-α inhibition” and the “IL-1β production (ELISA)” value ([2]; RAW 264.7, activated by 300 ng/mL Pam3CSK4) was “inhibited”. The cytotoxicity (RAW 264.7 cells) was “no significant cytotoxicity”, the cytotoxicity (RAW 264.7 cells; listed as CU-CPT22) was “low toxicity” and the “toxicity by MTT assay” value (RAW 264.7 cells; under 8 μM) was “no significant toxicity issues”.
